From US20240336571A1, “NOVEL CYCLOPROPYL COMPOUNDS” (ICAGEN, LLC, priority 2021, published 2024) come the findings set out here.

One may read the EC50 as the concentration that produces a half-maximal response. In general, Emax refers to the size of the effect at its maximum, as opposed to the concentration needed.

The experiment has as its target human Kv7.2 (Homo sapiens (Human), UniProt O43526). As to the kind of experiment: SyncroPatch 384 electrophysiology, activation of Kv7.2 in CHO cells. The class given is cell-based. As to conditions: for EC50: CHO cells stably expressing human Kv7.2, potassium current at -90 mV repolarizing step, in presence of zinc pyrithione; for Emax: CHO, Kv7.2 activation max %, relative to 30 μM ML-213 max activation. Here is the method:
The potency of Kv7 potentiators was determined using the SyncroPatch 384 (Nanion) high throughput electrophysiology platform.
CHO cells stably expressing either human Kv7.2, Kv7.4 or Kv7.5/7.3 under a constitutive CMV promoter were used for these studies. Cells were maintained in F12 Hams+1 mM L-glutamine (Hyclone) supplemented with 10% FBS (Sigma), 0.3×NEAA (Non-essential Gamino-acids) and 400 ug/ml G418 at 37° C. in 5% CO2. Cells were cultured in T-225 flasks (Nunc) for 2-3 days to reach 85-95% confluence prior to electrophysiological recording.
Earle's balanced salt solution (in mM): 135 NaCl, 5.4 KCl, 5 Glucose, 2 CaCl2, 1 MgCl2, 5 HEPES, pH 7.4. Seal enhancer solution (in mM): 90 NaCl, 3 KCl, 35 CaCl2, 10 MgCl2, 10 HEPES, pH 7.4. Extracellular recording solution (in mM): 71 NaCl, 70 NMDG, 13 KCl, 5 Glucose, 2 CaCl2, 1 MgCl2, 10 HEPES, pH 7.4. Intracellular recording solution (in mM): 130 KF, 20 KCl, 4 EGTA, 10 HEPES, 2 EDTA, 0.01 Escin, pH 7.2.
Cells were harvested for electrophysiological recording upon reaching appropriate confluence. Cells were first washed in DPBS (Hyclone, Cat #SH30028.03) and then 2 ml of Accutase (MP Biomedicals #1000449) was added at 28° C. until ˜90% of cells were suspended. F12 HAM's media+1 mM L-glutamine (Hyclone, SH30026.02) was then added to the flask to dilute the accutase. Cells were then triturated until a single cell suspension was achieved, a cell count was performed, and cells were centrifuged for 2 min. at 1,000 rpm. Media was then aspirated, and cells were resuspended in Earle's balanced salt solution to a concentration of 0.75×10^6 cells/ml and allowed to recover for 25 min at 10° C.
At the beginning of each assay, 20 μl of cell suspension was dispensed into each well of a multi-hole 384-well SyncroPatch chip by the onboard pipettor. Cell sealing was initiated, and seal enhancer solution was added to facilitate seal formation. Upon completion of sealing, cells were washed 3 times with extracellular recording solution and the assay voltage protocol was started. Human Kv7.2, Kv7.4 or Kv7.5/7.3 channels were evaluated using a voltage protocol in which cells were voltage-clamped at a holding potential of −60 mV. Potassium currents were continuously activated with a series of three voltage steps to −30 mV for 3 seconds, 40 mV for 1 second and −90 mV for 4 seconds with 12 seconds between successive voltage sweeps. Potassium currents were measured from the −90 mV repolarizing step. Baseline current was assessed for 3.5 minutes prior to the addition of 5.6 μM zinc pyrithione (1 μM for Kv7.4). Kv7.2, Kv7.4 or Kv7.5/7.3 current in the presence of zinc pyrithione was acquired over five minutes to allow channels to reach steady state activity prior to addition of test agents. Channel activity was monitored for three minutes preceding the addition of 30 μM ML-213 (3 minutes) to achieve maximum activation. 150 mM TEA with 10 μM XE-991 was applied for 2 minutes to measure the leak current during maximum inhibition of Kv7.2, Kv7.4 or Kv7.5/7.3 channels.
Data were collected on the SyncroPatch platform using PatchControl software (Nanion) and processed and analyzed using DataControl Software (Nanion). Percent activation was calculated from potassium current as follows: The average current for the 5 sweeps in the presence of zinc pyrithione immediately preceding test agent addition was taken as the ‘control’ data. Likewise, the average potassium current in the presence of test agents 5 sweeps immediately preceding addition of 30 μM ML-213 was determined for ‘drug’ data. The average potassium current 5 sweeps immediately prior to addition of 150 mM TEA+10 μM XE-991 was determined for ‘max activation’ data while average currents from 5 sweeps immediately following addition of TEA was determined for ‘max inhibition’ data. Percent activation for each of the 384-wells of a sealchip was calculated as ((‘drug’−‘max inhibition’)/(‘max activation’−‘max inhibition’))*100 with Pipeline Pilot (Accelrys). […]

Consider `O=C(NCc1ccnc(OC2CCOCC2)c1)N[C@@H]1C[C@H]1c1ccccc1` [Example 20, 1-[[2-(oxan-4-yloxy)pyridin-4-yl]methyl]-3-[(1R,2S)-2-phenylcyclopropyl]urea], for which the EC50 stood at 5930 nM and the Emax came out at 58%.
As for `O=C(NCc1cccc(Cl)n1)N[C@@H]1C[C@H]1C1CCCCC1` (racemic) [Example 3, 1-[(6-chloropyridin-2-yl)methyl]-3-[rac-(1R,2S)-2-cyclohexylcyclopropyl]urea], the half-maximal effective concentration (EC50) amounted to 1540 nM and the Emax was 77%.
As for `CC(F)(F)[C@@H]1C[C@H]1NC(=O)NCc1ccnc(OC(F)F)c1` (racemic) [Example 44, 1-[[2-(difluoromethoxy)pyridin-4-yl]methyl]-3-[rac-(1R,2R)-2-(1,1-difluoroethyl)cyclopropyl]urea], the EC50 worked out at 330 nM and the Emax was determined as 40%.
As for `C[C@]1(C(F)(F)F)C[C@@H]1NC(=O)NCc1ccnc(OC(F)F)c1` (racemic) [Example 47, 1-[[2-(difluoromethoxy)pyridin-4-yl]methyl]-3-[rac-(1R,2R)-2-methyl-2-(trifluoromethyl)cyclopropyl]urea], the EC50 amounted to 50 nM and the Emax amounted to 77%.
For `O=C(NCc1ccnc(-c2cnco2)c1)N[C@@H]1C[C@H]1C1CCCCC1` (racemic) [Example 23, 1-[[2-(1,3-oxazol-5-yl)pyridin-4-yl]methyl]-3-[rac-(1R,2S)-2-cyclohexylcyclopropyl]urea], in that order: 920 nM and 63%.
Turning to `O=C(NCc1cc(OCC(F)(F)F)ncn1)N[C@@H]1C[C@H]1C(F)(F)F` (racemic) [Example 51, 1-[rac-(1R,2R)-2-(trifluoromethyl)cyclopropyl]-3-[[6-(2,2,2-trifluoroethoxy)pyrimidin-4-yl]methyl]urea], the EC50 amounted to 280 nM and the Emax amounted to 52%.
`CC(C)Oc1cc(CNC(=O)N[C@@H]2C[C@H]2c2ccccc2)ccn1` [Example 6, 1-[(1R,2S)-2-phenylcyclopropyl]-3-[(2-propan-2-yloxypyridin-4-yl)methyl]urea]: the EC50 turned out to be 660 nM and the Emax came to 64%.
For the compound `O=C(NCc1ccnc(OCC(F)CF)c1)N[C@@H]1C[C@H]1c1ccccc1` (stereo partly drawn) [Example 48, 1-[[2-(2,3-difluoropropoxy)pyridin-4-yl]methyl]-3-[(1R,2S)-2-phenylcyclopropyl]urea], the EC50 came to 570 nM and the Emax stood at 70%.
With `O=C(NCc1ccnc(C2COC2)c1)N[C@@H]1C[C@H]1c1ccccc1` [Example 32], the EC50 came out at 3020 nM and the Emax worked out at 40%.
Consider `CC(C)c1nccc(CNC(=O)N[C@@H]2C[C@H]2C2CCCCC2)n1` (racemic) [Example 4, 1-[(2-propan-2-ylpyrimidin-4-yl)methyl]-3-[rac-(1R,2S)-2-cyclohexylcyclopropyl]urea], for which the half-maximal effective concentration (EC50) is 4400 nM and the Emax was determined as 71%.
For `C[C@H](NC(=O)N[C@@H]1C[C@H]1c1ccccc1)c1ccnc(-n2cnc(C(F)(F)F)c2)c1` [Example 33, 1-[(1R,2S)-2-phenylcyclopropyl]-3-[(1S)-1-[2-[4-(trifluoromethyl)imidazol-1-yl]pyridin-4-yl]ethyl]urea], the EC50 was 310 nM and the Emax was 40%.
As to `O=C(NCc1ccnc(OC2COC2)c1)N[C@@H]1C[C@H]1c1ccccc1` [Example 16], the EC50 worked out at 960 nM and the maximum response (Emax) is 57%.
In the case of `N#Cc1cc(CNC(=O)N[C@@H]2C[C@H]2c2ccccc2)ccn1` [Example 10, 1-[(2-cyanopyridin-4-yl)methyl]-3-[(1R,2S)-2-phenylcyclopropyl]urea], the EC50 was found to be 1190 nM and the Emax stood at 43%.
As to `CC(F)(F)c1cc(CNC(=O)N[C@@H]2C[C@H]2c2ccccc2)ccn1` [Example 26, 1-[[2-(1,1-difluoroethyl)pyridin-4-yl]methyl]-3-[(1R,2S)-2-phenylcyclopropyl]urea], the EC50 stood at 1560 nM and the Emax came to 97%.
For `O=C(NCc1ccnc(-n2cnc(C(F)(F)F)c2)c1)N[C@@H]1C[C@H]1c1ccccc1` [Example 31, 1-[(1R,2S)-2-phenylcyclopropyl]-3-[[2-[4-(trifluoromethyl)imidazol-1-yl]pyridin-4-yl]methyl]urea], the EC50 came to 500 nM and the Emax turned out to be 44%.
For `C[C@H](NC(=O)N[C@@H]1C[C@H]1c1ccccc1)c1ccnc(OC(F)F)c1` [Example 30, 1-((S)-1-(2-(difluoromethoxy)pyridin-4-yl)ethyl)-3-((1R,2S)-2-phenylcyclopropyl)urea], in that order: 210 nM and 72%.
For `O=C(NCc1ccnc(C(F)(F)F)c1)N[C@@H]1C[C@H]1c1ccccc1` [Example 22, 1-[(1R,2S)-2-phenylcyclopropyl]-3-[[2-(trifluoromethyl)pyridin-4-yl]methyl]urea], the EC50 worked out at 720 nM and the Emax amounted to 53%.
For the compound `COc1cc(CNC(=O)N[C@@H]2C[C@H]2c2ccccc2)ccn1` [Example 9, 1-[(2-methoxypyridin-4-yl)methyl]-3-[(1R,2S)-2-phenylcyclopropyl]urea], the EC50 came to 3410 nM and the Emax came to 78%.
`O=C(NCc1ccnc(OCC(F)(F)F)c1)N[C@@H]1C[C@H]1c1ccccc1` [Example 14, 1-[(1R,2S)-2-phenylcyclopropyl]-3-[[2-(2,2,2-trifluoroethoxy)pyridin-4-yl]methyl]urea]: the EC50 was 70 nM and the Emax stood at 71%.
As for `N#Cc1ccnc(CNC(=O)N[C@@H]2C[C@H]2c2ccccc2)c1` [Example 1, 1-[(4-cyanopyridin-2-yl)methyl]-3-[(1R,2S)-2-phenylcyclopropyl]urea], the EC50 came out at 4680 nM and the Emax is 73%.
In the same order, the values of `C[C@@H](NC(=O)N[C@@H]1C[C@H]1c1ccccc1)c1ccnc(OC(F)F)c1` (stereo in doubt) [Example 38] are 3810 nM and 42%.
Regarding `O=C(NCc1ccnc(-n2cccn2)c1)N[C@@H]1C[C@H]1c1ccccc1` [Example 13, 1-[(1R,2S)-2-phenylcyclopropyl]-3-[(2-pyrazol-1-ylpyridin-4-yl)methyl]urea], the EC50 is 1340 nM and the Emax stood at 74%.
As to `O=C(NCc1ccnc(-n2ccnc2)c1)NC1CC1C1CCCCC1` (stereo not shown) [Example 11, 1-(2-cyclohexylcyclopropyl)-3-[(2-imidazol-1-ylpyridin-4-yl)methyl]urea], the EC50 is 2140 nM and the Emax is 52%.
In the same order, the values of `O=C(NCc1ccnc(Cl)c1)N[C@@H]1C[C@H]1c1ccccc1` [Example 19, 1-[(2-chloropyridin-4-yl)methyl]-3-[(1R,2S)-2-phenylcyclopropyl]urea] are 6830 nM and 60%.
As for `O=C(NCc1ccnc(-n2cnc(C(F)(F)F)c2)c1)N[C@@H]1C[C@H]1C1CCCCC1` (racemic) [Example 24, 1-[rac-(1R,2S)-2-cyclohexylcyclopropyl]-3-[[2-[4-(trifluoromethyl)imidazol-1-yl]pyridin-4-yl]methyl]urea], the EC50 came to 160 nM and the Emax came out at 45%.
Turning to `O=C(NCc1ccnc(OC(F)F)c1)N[C@@H]1C[C@H]1c1ccccc1` [Example 7, 1-[[2-(difluoromethoxy)pyridin-4-yl]methyl]-3-[(1R,2S)-2-phenylcyclopropyl]urea], the EC50 was determined as 100 nM and the Emax was 71%.
